This is an account of results in PubChem BioAssay (NCI).

The term TGI denotes the concentration at which net growth stops. High values mean lower sensitivity of the cells, low ones greater sensitivity of the cells.

Experiment in all cases: DTP human tumour cell line panel, 48 h
In experiment [1] the test system is EKVX NSCLC.
Experiment [2] has as its system OVCAR-5 ovarian.
Experiment [3] deals with CCRF-CEM leukemia.
The subject of experiment [4] is HOP-62 NSCLC.
Experiment [5] relates to M14 melanoma.
The subject of experiment [6] is UO-31 renal.
Experiment [7] concerns A498 renal.
The subject of experiment [8] is T-47D breast.
Experiment [9] relates to DU-145 prostate.
The test system of experiment [10] is PC-3 prostate.
For experiment [11], the system named is NCI/ADR-RES ovarian.
The test system of experiment [12] is SF-539 CNS.
The subject of experiment [13] is HS 578T breast.
Experiment [14] relates to HOP-92 NSCLC.
Experiment [15] concerns KM12 colon.
Experiment [16] has as its system LOX IMVI melanoma.
Experiment [17] concerns SK-MEL-5 melanoma.

Molecules are shown by their SMILES.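 The compound was tested at five concentrations on cells cultured in 96-well plates, with a 48-hour exposure period. The concentration for full growth arrest is given as TGI.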

Turning to `O=C1/C(=C\c2ccc(Br)cc2)CCCc2ccccc21`, the TGI was 39 µM in [1]; greater than 100 µM in [2]; 53 µM in experiment [3]; greater than 100 µM in [4]; greater than 100 µM in experiment [5]; 27.8 µM in experiment [6]. In addition, the TGI came out at 45.6 µM in [7]; 50.6 µM in [8]; 49.4 µM in [9]; 55.4 µM in experiment [10]; 27.2 µM in experiment [11]; 43.1 µM in experiment [12]. The TGI was found to be 49 µM in experiment [13], 39.8 µM in experiment [14], 29 µM in experiment [15] and 29.9 µM in experiment [16].
For the compound `N#CCCN(CCC#N)c1ccc(/C=C2\N=C(c3ccccc3)N(c3ccc(C(=O)O)cc3)C2=O)cc1`, the concentration for total growth inhibition (TGI) in [1], in experiment [2], in experiment [17], in experiment [4], in experiment [5] and in experiment [6] was greater than 100 µM each time. The TGI was greater than 100 µM in experiment [7]; greater than 100 µM in experiment [8]; greater than 100 µM in experiment [9]; greater than 100 µM in [10]; greater than 100 µM in [11]; 61.5 µM in experiment [12]. Moreover, the TGI came to 58.5 µM in experiment [13], 30.1 µM in experiment [14], 31 µM in [15] and 93.2 µM in experiment [16].
With `CCOC(=O)c1sc2c(c1OC(=O)c1cc(OC)c(OC)c(OC)c1)c(=O)n(-c1ccccc1)c(=S)n2-c1ccccc1`, the TGI in experiment [1], in experiment [2], in [17], in [3], in experiment [4] and in experiment [5] was greater than 100 µM throughout. For the same compound, the TGI in experiment [7], in [8], in [9], in experiment [10], in experiment [11] and in experiment [12] was greater than 100 µM in each case. The total growth inhibition concentration (TGI) in experiment [13] is greater than 100 µM; in experiment [14], 95.3 µM; in [15], greater than 100 µM; in experiment [16], greater than 100 µM.
On to `O=[N+]([O-])c1ccc(C2ON=C(c3ccccc3)N2C23CC4CC(CC(C4)C2)C3)cc1` (stereo not given), for which the TGI in experiment [1], in experiment [2], in [17], in [3], in [4] and in experiment [5] was greater than 10 µM in each case. In addition, the TGI in experiment [7], in experiment [8], in experiment [9], in experiment [10], in experiment [11] and in [12] was greater than 10 µM in each case. Also, the TGI in [13], in experiment [14], in experiment [15] and in [16] was greater than 10 µM each time.
Take `Cn1c(=Nc2ccc(Cl)cc2)sc2ccccc21`: the concentration for total growth inhibition (TGI) in [1], in [2], in experiment [17], in experiment [3], in experiment [4] and in [6] was greater than 100 µM in each case. The TGI in [7], in experiment [8], in experiment [9], in [10], in experiment [11] and in [12] was greater than 100 µM each time. Besides, the TGI is greater than 100 µM in [13], 85.7 µM in experiment [14], greater than 100 µM in [15] and greater than 100 µM in experiment [16].
For `COC(=O)CCC1(CCC(=O)OC)CCCCCCC(CCC(=O)OC)(CCC(=O)OC)C(=O)C1=O`, the total growth inhibition concentration (TGI) in experiment [1] is greater than 100 µM; in experiment [2], greater than 100 µM; in experiment [17] it was greater than 100 µM; in experiment [4], greater than 100 µM; in experiment [5] it was greater than 100 µM; in experiment [6], 76.7 µM. The TGI in [7], in experiment [8], in experiment [9], in experiment [10], in [11] and in experiment [12] was greater than 100 µM throughout. The TGI in experiment [13], in experiment [14], in experiment [15] and in [16] was greater than 100 µM each time.
In the case of `NC(=O)CSc1c2cc(O)ccc2nc2ccc(O)cc12`, the TGI in [1], in experiment [2], in experiment [17], in experiment [3], in experiment [4] and in [5] was greater than 10 µM throughout. Besides, the TGI in experiment [7], in experiment [8], in [9], in [10], in experiment [11] and in experiment [12] was greater than 10 µM throughout. Besides, the TGI in experiment [13], in experiment [14], in experiment [15] and in [16] was greater than 10 µM throughout.
Take `COc1cc(C(=O)Oc2c(C(C)=O)sc3c2c(=O)n(-c2ccccc2)c(=S)n3-c2ccccc2)cc(OC)c1OC`: the TGI in [1] came to 40.8 µM; in experiment [2], 43.2 µM; in experiment [17], 32.1 µM; in experiment [3] it was 45.8 µM; in experiment [4], 67.1 µM; in experiment [5], 32.9 µM. For the same compound, the total growth inhibition concentration (TGI) in [7] was found to be 28.3 µM; in experiment [8] it was 99.6 µM; in [9], 50.6 µM; in experiment [10], 48.8 µM; in [11] it was 43.5 µM; in [12], 32.5 µM. Further, the TGI in experiment [13] stood at 74.4 µM; in experiment [14] it was 55.8 µM; in [15], 50.8 µM; in [16], 40.1 µM.
`O=C1C[C@@]23CCC4(CC2CCC[C@H]3O1)OCCO4` (stereo not given in full): the TGI in experiment [1], in [2], in experiment [17], in experiment [4], in [5] and in [7] was greater than 100 µM in each case. In addition, the TGI in experiment [8], in experiment [9], in experiment [10], in experiment [11], in experiment [12] and in [13] was greater than 100 µM throughout. The TGI in experiment [14], in [15] and in experiment [16] was greater than 100 µM throughout.
In the case of `O=C(c1ccccc1)N1C(=O)N(c2ccccc2)C(=Nc2ccccc2)C1=Nc1ccccc1`, the TGI in experiment [1], in [2], in [17], in experiment [3], in [4] and in experiment [6] was greater than 100 µM throughout. The TGI in [7], in [8], in [9], in [10], in experiment [11] and in experiment [12] was greater than 100 µM in each case. The TGI in [13], in experiment [14], in experiment [15] and in experiment [16] was greater than 100 µM throughout.
Consider `CO/N=C\c1ccc2c(c1)Sc1ccccc1O2`, for which the TGI in [1], in experiment [2], in [4], in experiment [5], in experiment [6] and in experiment [7] was greater than 100 µM throughout. Further, the TGI in [8] is greater than 100 µM; in experiment [9], greater than 100 µM; in experiment [10], greater than 100 µM; in experiment [11], greater than 100 µM; in experiment [12], greater than 100 µM; in experiment [13], 97.3 µM. In addition, the TGI in [14], in [15] and in [16] was greater than 100 µM each time.
Consider `FC(F)(F)c1ccc2c(c1)nc1n2C(c2c(Cl)cccc2Cl)SC1` (stereo not given), for which the TGI in [1] amounted to 32.3 µM; in experiment [2] it was 32.3 µM; in [4] it was 31 µM; in experiment [5], 36.9 µM; in [6], 31.8 µM; in experiment [7] it was 32.7 µM. The TGI in [8] was 47.4 µM; in experiment [9] it was 56.1 µM; in experiment [10] it was 37.9 µM; in [11], 58.9 µM; in experiment [12], 43 µM; in experiment [13] it was 59.3 µM. Besides, the values for the TGI in [14], in experiment [15] and in experiment [16] were 37 µM, 27.2 µM and greater than 100 µM, respectively.
On to `CC(C)(C)C(=O)Oc1ccc(/C=C/C(=O)c2ccc(OC(=O)C(C)(C)C)cc2)cc1`, for which the total growth inhibition concentration (TGI) in experiment [1] was greater than 100 µM; in experiment [2], greater than 100 µM; in experiment [17], greater than 100 µM; in experiment [3], 20.2 µM; in [4], greater than 100 µM; in experiment [5], greater than 100 µM. For the same compound, the TGI in [7], in experiment [8], in experiment [9], in experiment [10], in experiment [11] and in [12] was greater than 100 µM in each case. The TGI was 86.9 µM in experiment [13], greater than 100 µM in experiment [14], 38.5 µM in [15] and greater than 100 µM in [16].
